Assay [1] has as its system Cryptococcus neoformans ATCC MYA-895 (M). Description: MIC determination by in vitro antifungal assay. Format: cell-based. Particulars: strain M = C. neoformans ATCC MYA-895. The method, then:
(§1) 10 mg/mL stock solutions of compounds 1a-9j were prepared in dimethyl sulfoxide (DMSO) and were stored at −20° C. in the dark. The antifungal agent amphotericin B (AmB) was purchased from VWR (Radnor PA, USA). AmB was dissolved in DMSO at a final concentration of 5 mg/mL and was stored at −20° C., protected from light. Candida albicans American Type Culture Collection (ATCC) 10231 (strain A), C. albicans ATCC 64124 (B), and C. albicans ATCC MYA-2876 (C) were obtained from Utah State University. C. albicans ATCC 90819 (D), C. albicans ATCC MYA-2310 (E), C. albicans ATCC MYA-1237 (F), C. albicans ATCC MYA-1003 (G), Candida glabrata ATCC 2001 (H), Candida krusei ATCC 6258 (I), Candida parapsilosis ATCC 22019 (J), Cryptococcus neoformans ATCC MYA-895 (M), Aspergillus terreus ATCC MYA-3633 (N), and Aspergillus flavus ATCC MYA-3631 (0) were obtained from the American Type Culture Collection (ATCC; Manassas, VA, USA). Aspergillus nidulans ATCC 38163 (P) was obtained from University of Kentucky. Clinically derived Aspergillus fumigatus NRRL 163 (Q), A. fumigatus NRRL 5109 (R), and A. fumigatus NRRL 6113 (S) were obtained from Northern Regional Research Laboratory (NRRL). Candida auris 384 (K), C. auris 390 (L), and fungal strains 381-400 (including 10 C. auris (AR Bank #381-390), 3 Candida duobushaemulonii (AR Bank #391, AR Bank #392, and AR Bank #394), 2 Candida haemulonii (AR Bank #393 and AR Bank #395), 1 Kodameae ohmeri (AR Bank #396), 1 C. krusei (AR Bank #397), 1 Candida lusitaniae (AR Bank #398), and 2 Saccharomyces cerevisiae strains (AR Bank #399 and AR Bank #400)) were part of a larger fungal library from the AR Bank maintained by the Centers for Disease Control and Prevention (CDC; Atlanta, GA, USA). Filamentous fungi and yeasts were cultivated at 35° C. in RPMI 1640 medium (with L-glutamine, without sodium bicarbonate, Sigma-Aldrich, St. Louis, MO) buffered to a pH of 7.0 with 0.165 M morpholinepropanesulfonic acid (MOPS) buffer (Sigma-Aldrich). For cytotoxicity assays, HepG2 and the mouse macrophage cell line J774A.1 were obtained from University of Kentucky. The human embryonic kidney cell line, HEK-293, was bought from the ATCC. Mammalian cells were grown in Dulbecco's Modified Eagle's Medium (DMEM) (from VWR) with 10% fetal bovine serum (FBS) (from VWR) and 1% Pen/Strep (from ATCC). Cell lines were cultured at 37° C. with 5% CO2 and passaged by trypsinization with 0.05% trypsin: 0.53 mM EDTA (from Sigma-Aldrich).
(§2) The MIC values of compounds 1a-9j against yeast cells (strains A-P and 381-400) were determined in 96-well plates as described in the CLSI documents M27-A3 and M38-A2 with minor modifications.^2 A single colony of freshly prepared yeast cells was used to inoculate 5 mL of yeast extract peptone dextrose (YPD) broth prior to incubation overnight with shaking at 200 rpm at 35° C. From the actively growing yeast culture, 100 µL were then transferred to 900 μL of RPMI 1640 medium and re-adjusted to achieve OD600 of 0.12 (˜1×10^6 CFU/mL). The cell suspension was further diluted to achieve 1:100 in RPMI 1640 medium. 100 μL of cells were added to the wells of a 96-well microtiter plates that contained 100 µL of the compound solution to obtain concentrations of 0.06-31.3 μg/mL of compounds 1a-9j or AmB prior to incubation for 48 h at 35° C.
(§3) Finally, the activity of these monohydrazides was explored against […] non-Candida strains: Cryptococcus neoformans ATCC MYA-895 (M), Aspergillus terreus ATCC MYA-3633 (N), Aspergillus flavus ATCC MYA-3631 (O), Aspergillus nidulans ATCC 38163 (P), Aspergillus fumigatus NRRL 163 (Q), A. fumigatus NRRL 5109 (R), and A. fumigatus NRRL 6113 (S) (Tables 1A and 1B). The double dilution method was used with concentrations ranging from 0.06 to 31.3 j·tg mL^−1 for monohydrazides 1a-9j, and the commercially available positive antifungal control amphotericin B (AmB).

In assay [2] the test system is Aspergillus fumigatus NRRL 163 (Q). The experiment in a line: MIC determination by in vitro antifungal assay. Particulars: Aspergillus fumigatus, NRRL163; strain Q = A. fumigatus NRRL 163; read-out: MIC. Type of assay: cell-based. Here is the method:
as §1, §2, §3

Assay [3] has as its system Aspergillus nidulans ATCC 38163 (P). The experiment in a line: MIC determination by in vitro antifungal assay. Format: cell-based. The method, then: as §1, §2, §3
In assay [4] the test system is Aspergillus flavus ATCC MYA-3631 (O). The experiment in a line: MIC determination by in vitro antifungal assay. Format: cell-based. As to conditions: Aspergillus flavus; strain O = A. flavus ATCC MYA-3631; read-out: MIC. Here is the method:
as §1, §2, §3

The subject of assay [5] is Candida glabrata ATCC 2001 (H). Description: MIC determination by in vitro antifungal assay. As to conditions: ATCC 2001 in text. Type of assay: cell-based. The method, then: as §1
(§4) The MIC values of compounds 1a-9j against yeast cells (strains A-P and 381-400) were determined in 96-well plates as described in the CLSI documents M27-A3 and M38-A2 with minor modifications.^2 A single colony of freshly prepared yeast cells was used to inoculate 5 mL of yeast extract peptone dextrose (YPD) broth prior to incubation overnight with shaking at 200 rpm at 35° C. From the actively growing yeast culture, 100 µL were then transferred to 900 μL of RPMI 1640 medium and re-adjusted to achieve OD600 of 0.12 (˜1×10^6 CFU/mL). The cell suspension was further diluted to achieve 1:100 in RPMI 1640 medium. 100 μL of cells were added to the wells of a 96-well microtiter plates that contained 100 µL of the compound solution to obtain concentrations of 0.06-31.3 μg/mL of compounds 1a-9j or AmB prior to incubation for 48 h at 35° C. […]

In assay [6] the test system is A. fumigatus NRRL 6113 (S). Description: MIC determination by in vitro antifungal assay. Type of assay: cell-based, Aspergillus fumigatus. Particulars: Aspergillus fumigatus, NRRL6113; strain S = A. fumigatus NRRL 6113; read-out: MIC. Here is the method:
as §1, §2, §3

Assay [7] concerns A. fumigatus NRRL 5109 (R). The experiment in a line: MIC determination by in vitro antifungal assay. Format: cell-based, Aspergillus fumigatus. Particulars: Aspergillus fumigatus, NRRL5109; strain R = A. fumigatus NRRL 5109; read-out: MIC. The method, then:
as §1, §2, §3

In assay [8] the test system is C. albicans ATCC 10231 (strain A). The experiment in a line: MIC determination by in vitro antifungal assay (CLSI broth dilution). Format: cell-based, Candida albicans. As to conditions: strain A = C. albicans ATCC 10231, no visible growth, 48 h at 35° C. The method, then: as §1, §4
On the technique in general: Broth dilution looks for growth in wells or tubes with falling amounts of substance.

Assay [9] deals with C. albicans ATCC MYA-1237 (F). The experiment in a line: MIC determination by in vitro antifungal assay. Type of assay: cell-based, Candida albicans. Particulars: strain F = C. albicans ATCC MYA-1237(R). The method, then: as §1, §4
Assay [10] has as its system C. albicans ATCC 90819 (D). The experiment in a line: MIC determination by in vitro antifungal assay. Type of assay: cell-based, Candida albicans. Here is the method:
as §1, §4

The subject of assay [11] is C. albicans ATCC MYA-2876 (C). Description: MIC determination by in vitro antifungal assay. Type of assay: cell-based, Candida albicans. Particulars: strain C = C. albicans ATCC MYA-2876(S). Here is the method:
as §1, §4

[12] abbreviates: Candida albicans, read-out: MIC.

Values after ≈ are worked out from the molar mass of the structure shown. Where two headings read alike, the source gives them in different places.

As to `O=C(NNc1ccc(F)cc1F)c1cccc(Br)n1` [Compound 6g], the MIC was 0.98 µg/mL (≈ 2.99 µM) in assay [1] (Cryptococcus neoformans, read-out: MIC); 0.49 μg/mL^−1 in [1]; above 31.3 µg/mL in [2]; 3.9 µg/mL (≈ 11.9 µM) in [3] (Aspergillus nidulans, ATCC38163, strain P = A. nidulans ATCC 38163, read-out: MIC); 1.95 μg/mL^−1 in [3] (strain P = A. nidulans ATCC 38163); above 31.3 µg/mL in assay [4]. Besides, the MIC was 7.8 µg/mL (≈ 23.8 µM) in [5] (Nakaseomyces glabratus, ATCC 2001 / ATCC 2004, strain H = C. glabrata ATCC 2004 (footnote), read-out: MIC); 15.6 μg/mL^−1 in assay [5] (strain H = C. glabrata ATCC 2004 (footnote)); above 31.3 µg/mL in [6]; 31.3 µg/mL (≈ 95.4 µM) in assay [7]; 1.95 µg/mL (≈ 5.94 µM) in assay [8] (Candida albicans, ATCC10231, 48 h, read-out: MIC); 3.9 μg/mL^−1 in [8]. The MIC in [9] (setting [12]) stood at 0.98 µg/mL (≈ 2.99 µM); in [9] it was 1.95 μg/mL^−1; in assay [10] (Candida albicans, ATCC90819, strain D = C. albicans ATCC 90819(R), read-out: MIC), 1.95 µg/mL (≈ 5.94 µM); in assay [10] (strain D = C. albicans ATCC 90819(R)) it was 3.9 μg/mL^−1; in assay [11] (setting [12]), 0.49 µg/mL (≈ 1.49 µM); in assay [11], 0.98 μg/mL^−1.

For the origin of these results see patent publication US20240425464A1, “Substituted Monohydrazides as Potent Antifungal Agents” (University of Kentucky Research Foundation, priority 2023, published 2024).
